Measurements as given in US9585821B2, “Methods for making compositions for improving skin conditions” (Allergan Industrie SAS, priority 2010, dated 2017).

What was measured:
[1] = Chemical and physical stability of mannitol after sterilization; format: physicochemical; settings: 25% Mannitol autoclaved five times at 121° C. for 15 minutes
Method: The chemical and physical stability of mannitol after sterilization was determined by autoclaving 25% Mannitol ([…] Pharmaceuticals, Itasca, Ill.) five times at 121° C. for 15 minutes.

[2] = known, cited from earlier work
[3] = Appearance of fluid compositions, visually examined; format: physicochemical; settings: fluid compositions comprising a matrix polymer
Method: Fluid compositions made for testing were prepared as described in Example 1, except that 1) 1 mL of each fluid composition was made and the amount of mannitol added to the test fluid compositions was 0% (w/v) for control, 0.5% (w/v), 5% (w/v), 9% (w/v), and 17% (w/v). The appearance of the fluid compositions was visually examined.

## OC[C@@H](O)[C@@H](O)[C@H](O)[C@H](O)CO [mannitol]
[1]
  chemical and physical stability after sterilization: chemically and physically stable
[2]; in water
  mass solubility: 15.4%
[2]
  mannitol solubility in water: 1 g mannitol/5.5 ml water
[3]
  mannitol that fluid compositions can include before it begins to precipitate: about 15.4%
